In assay [1] the target is T1, human GST-DYRK1A (Homo sapiens, UniProt Q13627).
T1 construct: purified human GST-DYRK1A (full length, Thermo Scientifics) enzyme; purchased Thermo Scientifics
Kind of assay: GST-DYRK1A enzyme inhibition, ADP-Glo kinase assay. In kind it is biochemical. Conditions: ATP 10 μM, GST-DYRK1A full length, read-out: DYRK1 IC50. The method in brief:
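Full-length enzyme (10 ng) was incubated with 10 μM ATP and a specific substrate for 1 h at 25 °C in 40 mM Tris-HCl pH 7.4, 20 mM MgCl2, 0.5 mg/mL BSA, 50 μM DTT. Luminescence was read against a solvent control, and IC50 values were derived from 3 data sets.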

In assay [2] the target is LRRK2 (G2019S) (Homo sapiens, UniProt Q5S007, G2019S). Kind of assay: LRRK2 G2019S enzyme inhibition, ADP-Glo kinase assay. It counts as biochemical. Further details: purchased SignalChem L10-12GG. Conditions: ATP 25 μM. The method in brief:
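IC50 derived from luminescent ADP-Glo readout against untreated solvent control, twelve final compound concentrations from 50 μM downward. Reaction: recombinant human LRRK2 G2019S enzyme, 25 μM ATP, substrate, pH 7.4 Tris buffer with MgCl2/BSA/DTT, 25° C. for 2 hours.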

Assay [3] concerns SHP-77. Kind of assay: Inhibition of proliferation of SHP-77 cancer cells (Cell Titer-Glo). In kind it is cell-based. Conditions: Homo sapiens, SHP77, 72 hours. The method, then: (§1) To evaluate an inhibitory effect on the proliferation of cancer cells, each of an MDA-MB-231 cell line (Korean Cell Line Bank #30026) and an MDA-MB-468 cell line as triple-negative breast cancer cell lines, and SHP-77 (ATCC #CRL-2195) as a small-cell lung cancer cell line was cultured in DMEM (HyClone #SH30243) or an RPMI medium (HyClone #SH3027.01) to analyze a cell growth rate. More specifically, a cell line was plated on a 96-well flat bottom plate (Corning #3903) at a density of 2,000 cells/100 μL per well, and then treated with 11 concentrations of the Example compound, a solution of which was diluted 3-fold so that a final concentration of the compound was 10.000000, 3.333333, 1.111111, 0.370370, 0.123457, 0.041152, 0.013717, 0.004572, 0.001524, 0.000508, and 0.000169 μM. After 72 hours, each of the culture media was treated with 100 μL of Cell Titer-Glo (Promega G7573), and then cultured at room temperature for 10 minutes. Then, a degree of luminescence was measured using a microplate reader. A GI50 value was calculated from the measured degree of luminescence using Prism (Version 8.2 GraphPad) software.

The test system of assay [4] is MDA-MB-231 cell line. Kind of assay: Inhibition of proliferation of MDA-MB-231 cancer cells (Cell Titer-Glo). It counts as cell-based. Particulars: Homo sapiens, 72 hours. The protocol:
as §1

Assay [5] deals with T2, human GST-CLK1 (Homo sapiens, UniProt P49759).
T2 construct: purified human GST-CLK1 (129-end, SignalChem) enzyme; purchased SignalChem
Kind of assay: GST-CLK1 enzyme inhibition, ADP-Glo kinase assay. It counts as biochemical. Particulars: ATP 10 μM, GST-CLK1 129-end. The method in brief: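 ADP-Glo luminescence read-out, relative to untreated solvent control, gave IC50 (nM) from triplicate data sets. Reactions ran an hour at 25° C with 3 ng GST-CLK1 (residues 129-end), 10 μM ATP and specific substrate in Tris-HCl pH 7.4 buffer with MgCl2, BSA and DTT.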

In assay [6] the test system is MDA-MB-468 cell line. Kind of assay: Inhibition of proliferation of MDA-MB-468 cancer cells (Cell Titer-Glo). It counts as cell-based. Particulars: Homo sapiens, MDA-MB-468, 72 hours. The method, then:
as §1

In assay [7] the target is LRRK2 (Homo sapiens, UniProt Q5S007). Kind of assay: LRRK2 enzyme inhibition, ADP-Glo kinase assay. In kind it is biochemical. Further details: purchased Invitrogen PR8604B. Conditions: ATP 10 μM. The essentials: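 ADP-Glo luminescent read-out of ADP formed by purified human LRRK2 enzyme (25 ng), 10 μM ATP, 0.2 μg substrate, 25° C for 2 h, Tris-HCl pH 7.4 buffer with MgCl2, BSA, DTT. Inhibition versus untreated solvent control over twelve final concentrations (50 μM downward) gives IC50.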

SMILES strings stand for the structures.

LRRK2 (G2019S), sequence (Q5S007 970-2527 G2019S limits assumed): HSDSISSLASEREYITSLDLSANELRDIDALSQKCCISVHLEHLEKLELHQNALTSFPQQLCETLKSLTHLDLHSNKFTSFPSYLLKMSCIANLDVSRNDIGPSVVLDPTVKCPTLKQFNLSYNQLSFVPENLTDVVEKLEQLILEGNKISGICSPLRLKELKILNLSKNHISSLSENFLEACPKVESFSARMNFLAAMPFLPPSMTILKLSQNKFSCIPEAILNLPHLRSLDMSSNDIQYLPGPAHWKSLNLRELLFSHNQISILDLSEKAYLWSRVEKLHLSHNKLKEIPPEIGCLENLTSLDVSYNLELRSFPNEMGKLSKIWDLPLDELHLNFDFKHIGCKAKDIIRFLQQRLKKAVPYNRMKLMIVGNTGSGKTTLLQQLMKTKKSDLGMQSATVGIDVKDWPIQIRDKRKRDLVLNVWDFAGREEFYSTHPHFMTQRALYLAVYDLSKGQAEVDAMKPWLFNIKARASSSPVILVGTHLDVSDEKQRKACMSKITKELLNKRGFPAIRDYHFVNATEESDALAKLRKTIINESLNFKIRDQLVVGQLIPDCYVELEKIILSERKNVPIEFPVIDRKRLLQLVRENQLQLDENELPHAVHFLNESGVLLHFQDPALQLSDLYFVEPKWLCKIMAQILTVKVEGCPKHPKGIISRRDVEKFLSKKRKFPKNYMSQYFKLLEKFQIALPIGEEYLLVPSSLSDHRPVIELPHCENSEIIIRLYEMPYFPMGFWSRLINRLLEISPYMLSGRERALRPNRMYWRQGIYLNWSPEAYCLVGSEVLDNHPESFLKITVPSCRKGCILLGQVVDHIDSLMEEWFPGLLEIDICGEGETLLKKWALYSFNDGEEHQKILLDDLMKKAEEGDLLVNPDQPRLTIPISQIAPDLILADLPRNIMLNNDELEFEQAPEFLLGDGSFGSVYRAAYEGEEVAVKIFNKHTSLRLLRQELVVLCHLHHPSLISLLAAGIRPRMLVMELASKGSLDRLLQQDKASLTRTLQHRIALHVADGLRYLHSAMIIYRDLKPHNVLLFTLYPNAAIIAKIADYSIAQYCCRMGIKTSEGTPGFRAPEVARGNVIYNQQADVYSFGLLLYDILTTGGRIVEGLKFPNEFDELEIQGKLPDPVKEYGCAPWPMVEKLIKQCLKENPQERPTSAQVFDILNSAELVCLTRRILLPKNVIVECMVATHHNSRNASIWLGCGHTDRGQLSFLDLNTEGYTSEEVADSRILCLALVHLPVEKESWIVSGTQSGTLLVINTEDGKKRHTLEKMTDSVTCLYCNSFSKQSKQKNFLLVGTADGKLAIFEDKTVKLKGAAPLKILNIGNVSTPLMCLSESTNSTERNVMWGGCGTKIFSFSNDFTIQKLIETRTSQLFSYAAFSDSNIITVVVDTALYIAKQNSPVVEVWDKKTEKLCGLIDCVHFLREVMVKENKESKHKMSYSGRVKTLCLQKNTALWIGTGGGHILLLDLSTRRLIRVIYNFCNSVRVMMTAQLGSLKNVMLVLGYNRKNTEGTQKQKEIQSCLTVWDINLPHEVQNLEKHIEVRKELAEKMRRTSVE
LRRK2, sequence (Q5S007 970-2527 limits assumed): as the sequence (Q5S007 970-2527 G2019S limits assumed) above, with S1050G counted along it
T2 sequence (P49759 129-484 limits assumed): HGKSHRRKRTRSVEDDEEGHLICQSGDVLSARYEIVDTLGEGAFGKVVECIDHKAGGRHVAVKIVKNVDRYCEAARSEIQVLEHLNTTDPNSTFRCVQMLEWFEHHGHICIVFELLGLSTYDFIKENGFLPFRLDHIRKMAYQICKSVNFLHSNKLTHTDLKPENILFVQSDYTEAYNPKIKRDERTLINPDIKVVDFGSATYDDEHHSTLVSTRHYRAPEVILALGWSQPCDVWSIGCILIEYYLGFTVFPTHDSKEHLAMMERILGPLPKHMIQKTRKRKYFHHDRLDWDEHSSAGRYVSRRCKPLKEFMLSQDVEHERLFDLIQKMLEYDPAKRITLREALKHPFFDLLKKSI

Consider `COc1cc(S(=O)(=O)N2CCOCC2)ccc1Nc1nc(NCC(C)C)c2c(C#N)c[nH]c2n1` [Example 65, 4-(isobutylamino)-2-((2-methoxy-4-(morpholinosulfonyl)phenyl)amino)-7H-pyrrolo[2,3-d]pyrimidine-5-carbonitrile], for which the results for the 50% inhibitory concentration (IC50) in assay [1], in assay [2] and in assay [5] were 301 to 1000 nM, under 100 nM and 301 to 1000 nM, respectively. Also, the GI50 in assay [3] and in assay [4] was under 50 nM in each case.
With `COc1cc(S(=O)(=O)N2CCOCC2)ccc1Nc1nc(NC(C)C)c2c(C#N)c[nH]c2n1` [Example 66, 4-(isopropylamino)-2-((2-methoxy-4-(morpholinosulfonyl)phenyl)amino)-7H-pyrrolo[2,3-d]pyrimidine-5-carbonitrile], the GI50 in assay [3] and in assay [4] was under 50 nM each time.
With `CC[C@H](C)Nc1nc(Nc2ccc(S(=O)(=O)N3CCOCC3)cc2OC)nc2[nH]cc(C#N)c12` [Example 68, (S)-4-(sec-butylamino)-2-((2-methoxy-4-(morpholinosulfonyl)phenyl)amino)-7H-pyrrolo[2,3-d]pyrimidine-5-carbonitrile], the IC50 in assay [1] and in assay [5] was 301 to 1000 nM in each case. Besides, the GI50 in assay [3] and in assay [4] was 101 to 300 nM each time.
Turning to `COc1cc(S(=O)(=O)N2CCOCC2)ccc1Nc1nc(N[C@@H]2CCOC2)c2c(C#N)c[nH]c2n1` [Example 74, (R)-2-((2-methoxy-4-(morpholinosulfonyl)phenyl)amino)-4-((tetrahydrofuran-3-yl)amino)-7H-pyrrolo[2,3-d]pyrimidine-5-carbonitrile], the IC50 in assay [1] and in assay [5] was 301 to 1000 nM each time. Besides, the concentration for 50% growth inhibition (GI50) in assay [3] and in assay [4] was 101 to 300 nM in each case.
With `COc1cc(S(=O)(=O)N2CCOCC2)ccc1Nc1nc(NCC2CCC2)c2c(C#N)c[nH]c2n1` [Example 79, 4-((cyclobutylmethyl)amino)-2-((2-methoxy-4-(morpholinosulfonyl)phenyl)amino)-7H-pyrrolo[2,3-d]pyrimidine-5-carbonitrile], the IC50 in assay [1] and in assay [5] was 301 to 1000 nM each time. In addition, the GI50 is under 50 nM in assay [3] and 51 to 100 nM in assay [4].
`CC[C@@H](C)Nc1nc(Nc2ccc(S(=O)(=O)N3CCC(N4CCOCC4)CC3)cc2OC)nc2[nH]cc(C#N)c12` [Example 86, (R)-4-(sec-butylamino)-2-((2-methoxy-4-((4-morpholinopiperidin-1-yl)sulfonyl)phenyl)amino)-7H-pyrrolo[2,3-d]pyrimidine-5-carbonitrile]: the IC50 in assay [1] and in assay [5] was 301 to 1000 nM throughout. In addition, the GI50 in assay [3] and in assay [4] was under 50 nM throughout.
As to `COc1cc(S(=O)(=O)N2CCOCC2)ccc1Nc1nc(NCC(C)C)c2c(C(F)(F)F)c[nH]c2n1` [Example 192, N^4-isobutyl-N^2-(2-methoxy-4-(morpholinosulfonyl)phenyl)-5-(trifluoromethyl)-7H-pyrrolo[2,3-d]pyrimidine-2,4-diamine], the IC50 in assay [1] was 101 to 300 nM; in assay [5], 301 to 1000 nM. For the same compound, the GI50 in assay [3] and in assay [4] was 301 to 1000 nM each time.
As for `COc1cc(S(=O)(=O)N2CCOCC2)ccc1Nc1nc(NCC2CCCC2)c2c(C(F)(F)F)c[nH]c2n1` [Example 194, N^4-(cyclopentylmethyl)-N^2-(2-methoxy-4-(morpholinosulfonyl)phenyl)-5-(trifluoromethyl)-7H-pyrrolo[2,3-d]pyrimidine-2,4-diamine], the IC50 in assay [1] and in assay [5] was 301 to 1000 nM throughout. Also, the GI50 in assay [3] and in assay [4] was 301 to 1000 nM in each case.
As for `COc1cc(S(=O)(=O)N2CCC(N3CCOCC3)CC2)ccc1Nc1nc(NCC2CCCC2)c2c(C(F)(F)F)c[nH]c2n1` [Example 195, N^4-(cyclopentylmethyl)-N^2-(2-methoxy-4-((4-morpholinopiperidin-1-yl)sulfonyl)phenyl)-5-(trifluoromethyl)-7H-pyrrolo[2,3-d]pyrimidine-2,4-diamine], the IC50 in assay [1] and in assay [5] was 301 to 1000 nM in each case. Also, the GI50 in assay [3] and in assay [4] was 301 to 1000 nM in each case.
For `COc1cc(S(=O)(=O)N2CCOCC2)ccc1Nc1nc(NCC2CCC2)c2c(C(F)(F)F)c[nH]c2n1` [Example 200, N^4-(cyclobutylmethyl)-N^2-(2-methoxy-4-(morpholinosulfonyl)phenyl)-5-(trifluoromethyl)-7H-pyrrolo[2,3-d]pyrimidine-2,4-diamine], the IC50 in assay [1] and in assay [5] was 301 to 1000 nM each time. The GI50 in assay [3] and in assay [4] was 301 to 1000 nM each time.
For `COc1cc(S(=O)(=O)N2CCOCC2)ccc1Nc1nc(NCC2CC2)c2c(C(F)(F)F)c[nH]c2n1` [Example 203, N^4-(cyclopropylmethyl)-N^2-(2-methoxy-4-(morpholinosulfonyl)phenyl)-5-(trifluoromethyl)-7H-pyrrolo[2,3-d]pyrimidine-2,4-diamine], the IC50 fell in the range of 301 to 1000 nM in assay [1] and 101 to 300 nM in assay [5]. The GI50 in assay [3] and in assay [4] was 301 to 1000 nM each time.
Turning to `CCCCNc1nc(Nc2ccc(S(=O)(=O)N3CCOCC3)cc2OC)nc2[nH]cc(C(F)(F)F)c12` [Example 207, N^4-butyl-N^2-(2-methoxy-4-(morpholinosulfonyl)phenyl)-5-(trifluoromethyl)-7H-pyrrolo[2,3-d]pyrimidine-2,4-diamine], the IC50 in assay [1] and in assay [5] was 301 to 1000 nM each time. Further, the GI50 in assay [3] and in assay [4] was 301 to 1000 nM in each case.
Take `COc1cc(S(=O)(=O)N2CCC(N3CCOCC3)CC2)ccc1Nc1nc(NC2CC2)c2c(C(F)(F)F)c[nH]c2n1` [Example 375, N^4-cyclopropyl-N^2-(2-methoxy-4-((4-morpholino-piperidin-1-yl)sulfonyl)phenyl)-5-(trifluoromethyl)-7H-pyrrolo[2,3-d]pyrimidine-2,4-diamine]: the IC50 in assay [1] is 301 to 1000 nM; in assay [2] it was under 100 nM; in assay [5], 101 to 300 nM; in assay [7] it was under 100 nM. For the same compound, the results for the GI50 in assay [6] and in assay [4] were 301 to 1000 nM and 101 to 300 nM, respectively.
In the case of `COc1cc(S(=O)(=O)N2CCOCC2)ccc1Nc1nc(NC2CCC2)c2c(C(F)(F)F)c[nH]c2n1` [Example 377, N^4-cyclobuty-N2-(2-methoxy-4-(morpholino-sulfonyl)phenyl)-5-(trifluoromethyl)-7H-pyrrolo[2,3-d]pyrimidine-2,4-diamine], the IC50 in assay [1] was 301 to 1000 nM; in assay [2], 101 to 300 nM; in assay [5], under 100 nM; in assay [7] it was 101 to 300 nM. For the same compound, the GI50 in assay [6] and in assay [4] was 301 to 1000 nM in each case.
Turning to `CCNc1nc(Nc2ccc(S(=O)(=O)N3CCOCC3)c3c2OCCO3)nc2[nH]cc(C(F)(F)F)c12` [Example 432, N^4-ethyl-N^2-(8-(morpholino-sulfonyl)-2,3-dihydro-benzo[b][1,4]dioxin-5-yl)-5-(trifluoromethyl)-7H-pyrrolo[2,3-d]pyrimidine-2,4-diamine], the IC50 in assay [1] is 301 to 1000 nM; in assay [2], 101 to 300 nM; in assay [5] it was 301 to 1000 nM; in assay [7], under 100 nM. Moreover, the GI50 in assay [6] and in assay [4] was 301 to 1000 nM in each case.

These data come from patent US20230066011A1, “PYRROLOPYRIMIDINE DERIVATIVE, AND PHARMACEUTICAL COMPOSITION FOR PREVENTING OR TREATING PROTEIN KINASE-RELATED DISEASE COMPRISING SAME AS ACTIVE INGREDIENT” (VORONOI CO., LTD., priority 2019, published 2023).
